Earlier results, collected in patent US20100104622A1, “Ligand Targeted Nanocapsules for the delivery of RNAi and other Agents” (priority 2008, published 2010).

Test system: advanced stage melanoma
Settings: melanoma patients

COc1cccc2c1C(=O)c1c(O)c3c(c(O)c1C2=O)C[C@@](O)(C(=O)CO)C[C@@H]3O[C@H]1C[C@H](N)[C@H](O)[C@H](C)O1 [Doxorubicin]
efficacy in advanced stage melanoma: essentially ineffective
